From US20260216238A1, “TETRATHIOMOLYBDIC ACID FOR USE IN TREATING COPPER METABOLISM-ASSOCIATED DISEASES OR DISORDERS (WILSON DISEASE)” (Alexion Pharmaceuticals, Inc., priority 2023, published 2026)

Tested on: patients with Wilson disease (WD)
Assay: UWDRS Part III total score, functional subscale and individual items (neurological examination)
Assay type: in vivo, human
Conditions: for UWDRS Part III Functional Subscale (0-10) change from baseline, Mean (SD) / UWDRS Part III (0-175) change from baseline, Mean (SD): pooled Studies 301 and 201
Protocol: The UWDRS scoring system was developed specifically for the motor and movement disorders associated with chronic copper neurotoxicity in WD. Some individual items/subscales of the UWDRS Part III (arising from a chair, gait, handwriting, and speech) in addition to the UWDRS Parts I, II, and III overall, were assessed to further define the range of burdensome signs and symptoms of WD, so as to further understand the assessment of treatment effects on patients with WD. The UWDRS scores for consciousness (Part I) and abnormal neurologic examination findings (Part III) will be determined by a trained neurologist rater who is blinded to study treatment randomization. These scores were used to provide a rigorous dataset for evaluating changes from baseline.
Unified Wilson Disease Rating Scale (Parts I, II, and III): The UWDRS is a clinical rating scale designed to evaluate the neurological manifestations of WD that generally can be divided into 3 movement disorder syndromes: dystonic, ataxic, and Parkinsonian syndrome. The UWDRS comprises 3 parts: UWDRS Part I (level of consciousness, item 1), UWDRS Part II (a patient-reported review of daily activity items [disability], items 2 to 11), and UWDRS Part III (a detailed neurological examination, items 12 to 34).
The UWDRS Part I and Part III were assessed by a neurologist who is blinded to the treatment randomization, while UWDRS Part II may be reported to a non-blinded member of the study team by the patient, family member, or caregiver. The UWDRS has not been formally evaluated in adolescents. However, the components of Part I (level of consciousness), Part II (patient or caregiver-reported disability) and Part III (neurologic examination findings) were not fundamentally different between adults and adolescents. Patients aged 12 years and older were expected to be able to comply with UWDRS assessments.
Pooled results from all such participants will be integrated together into one timeline to allow analyses of changes in UWDRS, long-term copper control, and long-term safety laboratory data.
Endpoints (directly measured non-ceruloplasmin-bound copper [dNCC], UWDRS III (rater blinded) total and individual item scores, Clinical Global Impression-Improvement [CGI-I]) were evaluated at baseline (BL) and Week 48 (W48). Normalization (score decrease to 0), improvement (≥1 point decrease), stability (no change), or worsening (≥1 point increase) of total and individual UWDRS III item scores were evaluated at W48.

[1] = Week 24, Cohort 1, Study 201, n=8
[2] = Week 24, Cohort 1, Study 301, TTM n=90, SoC n=47
[3] = Week 24, Cohort 1, Total (Studies 301, 201, 205), n=98
[4] = Week 24, Study 301 TTM long term set
[5] = Week 48, Cohort 1, Study 201, n=9
[6] = Week 48, Cohort 1, Study 205, n=27
[7] = Week 48, Cohort 1, Study 301, TTM n=91, SoC n=49
[8] = Week 48, Cohort 1, Total (Studies 301, 201, 205), n=127

bis-choline tetrathiomolybdate [TTM]
UWDRS Part III Functional Subscale (0-10) change from baseline, Mean (SD) (TTM exposure 144 weeks): −1.042 (1.7227)
UWDRS-III change from baseline, Mean (SD) (TTM exposure 168 weeks, N=18): −18.08 (19.127)
UWDRS Part III (0-175) change from baseline, Mean (SD) (TTM exposure 168 weeks): −18.08 (19.127)
UWDRS Part III Functional Subscale (0-10) change from baseline, Mean (SD) (TTM exposure 168 weeks): −1.841 (2.1818)
UWDRS-III change from baseline, Mean (SD) (TTM exposure 192 weeks, N=19): −12.65 (19.476)
UWDRS Part III (0-175) change from baseline, Mean (SD) (TTM exposure 192 weeks): −12.65 (19.476)
UWDRS Part III Functional Subscale (0-10) change from baseline, Mean (SD) (TTM exposure 192 weeks): −1.250 (2.1459)
UWDRS-III change from baseline, Mean (SD) (TTM exposure 216 weeks, N=14): −16.17 (19.323)
UWDRS Part III (0-175) change from baseline, Mean (SD) (TTM exposure 216 weeks): −16.17 (19.323)
UWDRS Part III Functional Subscale (0-10) change from baseline, Mean (SD) (TTM exposure 216 weeks): −1.519 (2.3987)
UWDRS-III change from baseline, Mean (SD) (TTM exposure 240 weeks, N=13): −11.48 (16.473)
UWDRS Part III (0-175) change from baseline, Mean (SD) (TTM exposure 240 weeks): −11.48 (16.473)
UWDRS Part III Functional Subscale (0-10) change from baseline, Mean (SD) (TTM exposure 240 weeks): −0.898 (1.3384)
UWDRS-III change from baseline, Mean (SD) (TTM exposure 264 weeks, N=13): −14.00 (16.513)
UWDRS Part III (0-175) change from baseline, Mean (SD) (TTM exposure 264 weeks): −14.00 (16.513)
UWDRS Part III Functional Subscale (0-10) change from baseline, Mean (SD) (TTM exposure 264 weeks): −0.995 (1.2369)
UWDRS Part III-gait (0-10), Difference at 48 weeks, LSM (TTM vs SoC, P 0.4325): −0.15
UWDRS Part III-handwriting (0-4), Difference at 48 weeks, LSM (TTM vs SoC, P 0.5077): −0.1
UWDRS Part III functional subscale (0-10), Difference at 48 weeks, LSM (TTM vs SoC, P 0.6191): −0.067
UWDRS Part III-arising from chair (0-4), Difference at 48 weeks, LSM (TTM vs SoC, P 0.6869): 0.0
UWDRS Part III-speech (0-4), Difference at 48 weeks, LSM (TTM vs SoC, P 0.7238): 0.0
UWDRS Part III (0-175), Difference at 48 weeks, LSM (TTM vs SoC, P 0.9441): −0.09
UWDRS III total, LSM difference (SE) TTM versus SoC (W0-W48, cohort 1 incomplete response or intolerant, p=0.7084): −0.53 (1.426)
UWDRS-III, Change from Baseline, Max [1]: 1.0
UWDRS-III, Change from Baseline, Mean [1]: −13.82
UWDRS-III, Change from Baseline, Median [1]: −13.50
UWDRS-III, Change from Baseline, Min [1]: −35.0,
UWDRS-III, Change from Baseline, Q1 [1]: −19.80,
UWDRS-III, Change from Baseline, Q3 [1]: −5.00
UWDRS-III, Change from Baseline, Max [2]: 13.0
UWDRS-III, Change from Baseline, Mean [2]: −0.86
UWDRS-III, Change from Baseline, Median [2]: 0.00
UWDRS-III, Change from Baseline, Min [2]: −18.7,
UWDRS-III, Change from Baseline, Q1 [2]: −3.00,
UWDRS-III, Change from Baseline, Q3 [2]: 1.00
UWDRS-III, Change from Baseline, Max [3]: 13.0
UWDRS-III, Change from Baseline, Mean [3]: −1.92
UWDRS-III, Change from Baseline, Median [3]: −1.00
UWDRS-III, Change from Baseline, Min [3]: −35.0,
UWDRS-III, Change from Baseline, Q1 [3]: −4.00,
UWDRS-III, Change from Baseline, Q3 [3]: 1.00
UWDRS-III, Change from Baseline, LSM Diff (TTM vs. SoC) (Week 24, Cohort 1, TTM Total vs SoC Study 301, P-value 0.3884): −1.00
UWDRS-III, Change from Baseline, LSM (Week 24, Cohort 1, TTM Total, SoC Study 301): −1.72
UWDRS Part III (0-175) change from baseline, LSM [4]: −1.32
UWDRS Part III (0-175) change from baseline, Mean [4]: −0.74
UWDRS Part III functional subscale (0-10) change from baseline, LSM [4]: −0.158
UWDRS Part III functional subscale (0-10) change from baseline, Mean [4]: −0.139
UWDRS Part III-arising from chair (0-4) change from baseline, LSM [4]: −0.1
UWDRS Part III-arising from chair (0-4) change from baseline, Mean [4]: 0.0
UWDRS Part III-gait (0-4) change from baseline, LSM [4]: −0.21
UWDRS Part III-gait (0-4) change from baseline, Mean [4]: −0.17
UWDRS Part III-handwriting (0-4) change from baseline, LSM [4]: 0.0
UWDRS Part III-handwriting (0-4) change from baseline, Mean [4]: −0.1
UWDRS Part III-speech (0-4) change from baseline, LSM [4]: −0.1
UWDRS Part III-speech (0-4) change from baseline, Mean [4]: −0.1
UWDRS-III, Change from Baseline, Max [5]: 2.0
UWDRS-III, Change from Baseline, Mean [5]: −19.44
UWDRS-III, Change from Baseline, Median [5]: −13.00
UWDRS-III, Change from Baseline, Min [5]: −48.0,
UWDRS-III, Change from Baseline, Q1 [5]: −29.00,
UWDRS-III, Change from Baseline, Q3 [5]: −9.00
UWDRS-III, Change from Baseline, Max [6]: 6.0
UWDRS-III, Change from Baseline, Mean [6]: −2.81
UWDRS-III, Change from Baseline, Median [6]: −2.00
UWDRS-III, Change from Baseline, Min [6]: −17.0,
UWDRS-III, Change from Baseline, Q1 [6]: −6.00,
UWDRS-III, Change from Baseline, Q3 [6]: 0.00
UWDRS-III, Change from Baseline, Max [7]: 31.0
UWDRS-III, Change from Baseline, Mean [7]: −2.24
UWDRS-III, Change from Baseline, Median [7]: −1.00
UWDRS-III, Change from Baseline, Min [7]: −28.0,
UWDRS-III, Change from Baseline, Q1 [7]: −4.00,
UWDRS-III, Change from Baseline, Q3 [7]: 0.00
UWDRS-III, Change from Baseline, Max [8]: 31.0
UWDRS-III, Change from Baseline, Mean [8]: −3.58
